Measurements: paper PMC4322352, “Sirtinol Inhibits Neutrophil Elastase Activity and Attenuates Lipopolysaccharide-Mediated Acute Lung Injury in Mice” (Scientific Reports, 2015)

Target: T1, human neutrophil elastase (HNE) (Homo sapiens, UniProt P08246)
T1 construct: gene ELANE
T1 sequence (P08246 30-247): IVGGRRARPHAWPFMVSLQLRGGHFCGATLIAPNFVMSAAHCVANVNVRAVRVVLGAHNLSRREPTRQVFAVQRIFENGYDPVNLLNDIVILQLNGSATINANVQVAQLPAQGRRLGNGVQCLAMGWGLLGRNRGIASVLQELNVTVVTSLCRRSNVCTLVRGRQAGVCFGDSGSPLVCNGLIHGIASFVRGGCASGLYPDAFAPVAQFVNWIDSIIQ
Test: chromogenic enzymatic assay with purified HNE, absorbance at […] nm
Format: biochemical

For `CC(NC(=O)c1ccccc1/N=C/c1c(O)ccc2ccccc12)c1ccccc1` (stereo not shown) [Sirtinol, 2-[(2-hydroxynaphthalen-1-ylmethylene)amino]-N-(1-phenethyl) benzamide], the IC50 was 8.4 ± 0.53 µM.
